Source: patent US12674795B2, “Method for peritoneal metastatic cell detection and isolation thereof” (THE UNIVERSITY OF HONG KONG, priority 2019, dated 2026)

Key:
M-CSC-HPMC interaction = assay: Microfluidic perfusion assay of M-CSCs on HPMC-coated channels under shear stress; type: cell-based, human; conditions: for effect on M-CSCs binding/adhesion to HPMCs: M-CSCs treated before perfusion, result in words
Procedure: (§1) Microfluidic chips were fabricated as described^13. To coat microfluidic channels with selectin recombinant proteins, channels were incubated with 1 μg mL^−1 selectin-Fc recombinant proteins in PBS at 4° C. overnight. To coat microfluidic channels with HPMCs, channels were incubated with 10 μg mL^−1 human fibronectin in serum free medium overnight at 4° C. After wash, the channels were introduced with HPMCs suspension (3.5×10^6 mL^−1) and cultured overnight under C02 incubator at 37° C. To functionally block selectins, HPMCs were incubated with 20 μg mL^−1 anti-E-selectin, anti-P-selectin, anti-L-selectin or isotype antibody at room temperature for 1 h before the assays.
(§2) CSCs of 70-100 μm diameter were collected with cell strainer, fluorescently labeled with CMFDA Celltracker (2.5 μg mL^−1, C7025, Life Technologies) as per manufacturer's instructions for assays. Fluorescently labeled CSCs resuspended in binding buffer (1500 spheroids mL^−1) were perfused into the microfluidic channel through a syringe pump (LongerPump) under desired shear stresses. The viscosity of the binding buffer (0.9 cp) is within the range of viscosity (0.95±0.15 cp) of ascitic fluid in patients with various ascitic etiologies^48. The motion of cancer spheroids was observed under fluorescent microscope (Nikon ECLIPSE Ti) and serial time lapse images (1 image sec^−1) were captured for 30 sec. More than three randomly chosen areas (4× objective) were captured for each treatment.
(§3) The motion of cancer spheroids under flow was analyzed offline using Image J (National Institutes of Health) and used for the classification of interactions as described^49. Briefly, cancer spheroids that tethered to the surface, then detached in the flow were defined as tethering. Cancer spheroids that moved at a velocity below the hydrodynamic velocity for more than one spheroid diameter were defined as rolling. Cancer spheroids that remained stationary for more than one frame during recording were determined as adhesion. Percentage of tethering or adhesion was calculated by dividing the number of tethering or adherent spheroids by the total number of spheroids flew through the field of observation in the 30 sec duration.
(§4) In some experiments, M-CSCs were incubated with or without neuramidase (100 mU, N2876, Sigma-Aldrich), α1-3,4 fucosidase (150 mU, P0769S, New England BioLabs), OSGE (100 μg mL^−1, CLE100, Cedarlane) or PNGase (10 U mL^−1, P0704S, New England BioLabs) according to the manufacturer's instructions for 1 h at 37° C. prior staining. To inhibit sulfation, M-CSCs were incubated with sodium chlorate (25 mM, 403016, Sigma-Aldrich) in serum-free medium for 48 h. To functionally block sLe^x, sLe^a or IGF-1R on M-CSCs, M-CSCs were incubated with CSLEX-1 (10 μg mL^−1, 551344, BD Biosciences), anti-CA19-9 (10 μg mL^−1, ab15146, Abcam), anti-IGF-1R (2 μg mL^−1, 24-60, Invitrogen) or isotype antibodies for 1 h at 37° C., respectively. To remove cell surface glycoprotein, M-CSCs were incubated with Trypsin/EDTA solution (0.05%, 25300054, Gibco) for 5 min and neutralized with the complete medium. To inhibit glycolipid synthesis, M-CSCs were cultured with or without DL-PPMP (2.5 μM, sc-205655, Santa Cruz) in serum-free medium for 5 days. To test the involvement of RTKs in mediating CSCs adhesion, M-CSCs were treated with or without small molecule inhibitors as indicated in the FIG. 13 before perfusion. All CSC perfusion experiments were repeated with HPMCs isolated from at least 3 different patients.

P-selectin-Fc = assay: Microfluidic perfusion assay of M-CSCs on P-selectin-Fc recombinant protein-coated channels; type: cell-based; conditions: for effect on M-CSCs binding/adhesion to P-selectin-Fc: M-CSCs treated before perfusion, result in words
Procedure: as §1, §2, §3, §4

[1] = biological target: P-selectin recombinant protein (Homo sapiens, UniProt P16109); assay: Flow adhesion assay of HM and NM cells on P-selectin recombinant protein; type: cell-based; conditions: 5 mM EDTA solution, shear stress 1 dynes/cm^2 for 1 min
P-selectin recombinant protein, sequence (P16109 with tags, fused parts or gaps limits assumed, species assumed): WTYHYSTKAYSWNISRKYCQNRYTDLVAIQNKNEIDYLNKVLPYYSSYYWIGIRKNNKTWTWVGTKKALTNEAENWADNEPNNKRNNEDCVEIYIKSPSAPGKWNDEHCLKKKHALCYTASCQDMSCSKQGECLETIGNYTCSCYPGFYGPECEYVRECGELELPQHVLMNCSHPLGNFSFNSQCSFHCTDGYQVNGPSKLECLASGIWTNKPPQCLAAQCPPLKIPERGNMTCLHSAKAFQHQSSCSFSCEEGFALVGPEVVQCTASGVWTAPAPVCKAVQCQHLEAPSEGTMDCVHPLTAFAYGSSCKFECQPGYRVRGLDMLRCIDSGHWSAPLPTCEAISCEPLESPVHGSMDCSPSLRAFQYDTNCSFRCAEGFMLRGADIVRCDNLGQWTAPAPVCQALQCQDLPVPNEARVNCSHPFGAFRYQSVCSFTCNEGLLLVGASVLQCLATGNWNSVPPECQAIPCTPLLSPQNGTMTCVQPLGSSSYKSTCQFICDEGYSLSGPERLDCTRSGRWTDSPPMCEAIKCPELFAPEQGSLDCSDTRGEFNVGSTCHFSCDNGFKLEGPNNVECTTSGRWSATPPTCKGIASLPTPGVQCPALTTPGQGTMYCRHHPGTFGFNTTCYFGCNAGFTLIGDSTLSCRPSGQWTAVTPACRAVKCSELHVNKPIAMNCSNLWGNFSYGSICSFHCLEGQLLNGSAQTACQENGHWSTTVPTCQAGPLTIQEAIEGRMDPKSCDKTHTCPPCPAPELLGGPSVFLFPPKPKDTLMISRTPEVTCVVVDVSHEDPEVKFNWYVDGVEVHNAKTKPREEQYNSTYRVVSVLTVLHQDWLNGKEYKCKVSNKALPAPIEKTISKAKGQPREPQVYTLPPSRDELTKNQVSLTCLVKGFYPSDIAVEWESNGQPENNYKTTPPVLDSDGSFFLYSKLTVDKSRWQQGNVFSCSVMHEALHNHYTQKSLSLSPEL
Excerpt: FIG. 9A-9E show results of flow adhesion assay. (A) Transient velocities of representative cells on P-selectin recombinant protein. Triangles represent a rolling adhesion highly metastatic (HM) cells; Circles represent a non-interaction non-metastatic (NM) cells quickly passed through the channel. […] (B) Rolling percentage of NM and HM cells on P-selectin recombinant protein. (C) Cumulative frequency rolling velocity histograms. (D) Adhesion percentage of NM and HM cells on P-selectin recombinant protein. HM or NM cells were introduced into flow chambers pre-coated with […] P-selectin-Fc chimera or Fc control at shear stress of 0.1 dyne/cm2. Cell movement was observed under microscope and captured with high speed camera. Cancer cells rolling velocity was calculated by dividing moving distance with duration. […] Adhesion was defined as cancer cells stop moving for more than one second during recording. The rolling or adhesion fraction was quantified through dividing the number of rolling or adhesive cells by the total number of cells traveled into the field of observation area for 30 seconds. (E) Adhesion percentage of NM and HM cells on P-selectin-Fc chimera at shear stress of 0.05-0.15 dyne/cm2. Data are presented as mean±S.E.; *P<0.05, **P<0.01.
FIG. 10A-10B show EDTA detachment assay. […] (A) A brightfield microscope image of captured HM cells. […]

P-selectin = biological target: T1, P-selectin (Mus musculus, UniProt Q01102); assay: Adhesion of tumor cells to the mouse peritoneum; type: in vivo; conditions: 1 mg kg^-1 i.p. 1 h prior to injection of M-CSCs from SKOV-3 and ovarian cancer patients; NOD/SCID mice
T1 construct: from tissue; host or cells: peritoneum, mesentery and omentum of living NOD/SCID mice
T1 sequence (Q01102 42-768): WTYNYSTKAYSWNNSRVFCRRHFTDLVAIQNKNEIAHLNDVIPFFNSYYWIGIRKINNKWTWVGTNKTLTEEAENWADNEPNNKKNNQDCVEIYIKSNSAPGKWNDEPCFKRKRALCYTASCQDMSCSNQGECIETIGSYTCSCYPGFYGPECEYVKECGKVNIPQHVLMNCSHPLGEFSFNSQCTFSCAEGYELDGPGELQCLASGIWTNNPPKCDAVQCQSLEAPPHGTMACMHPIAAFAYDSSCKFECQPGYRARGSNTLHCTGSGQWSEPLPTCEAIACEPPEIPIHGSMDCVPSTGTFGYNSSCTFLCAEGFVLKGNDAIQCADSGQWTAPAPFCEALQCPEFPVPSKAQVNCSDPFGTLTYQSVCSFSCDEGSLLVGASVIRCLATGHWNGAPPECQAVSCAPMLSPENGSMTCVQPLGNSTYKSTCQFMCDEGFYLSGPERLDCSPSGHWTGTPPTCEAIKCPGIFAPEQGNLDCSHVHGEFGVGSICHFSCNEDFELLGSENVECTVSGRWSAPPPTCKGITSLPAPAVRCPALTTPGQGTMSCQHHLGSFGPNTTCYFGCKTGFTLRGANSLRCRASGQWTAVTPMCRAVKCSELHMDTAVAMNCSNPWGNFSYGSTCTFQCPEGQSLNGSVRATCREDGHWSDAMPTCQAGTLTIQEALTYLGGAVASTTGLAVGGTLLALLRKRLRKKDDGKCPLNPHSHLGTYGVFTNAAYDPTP
Procedure: M-CSCs (1×10^7) derived from SKOV-3 and ovarian cancer patients were fluorescently labeled with CMFDA and i.p. injected into NOD/SCID mice. To inhibit P-selectin, KF38789 (1 mg kg^−1, 2748, Tocris) or vehicle control were injected into the peritoneal cavity of mice 1 h prior to cell injection. Mice were sacrificed after 16 h and the peritoneal cavity was washed with PBS to remove non-adherent cells. Fluorescent signal from adherent tumor cells was acquired in the IVIS Spectrum and peritoneum, mesentery, and omentum were lysed with 1% NP-40 and fluorescence was measured with VICTOR (PerkinElmer).

[2] = shear stress around 1 dynes cm^-2

CC(C)(C)c1cc(C=C(C#N)C#N)cc(Br)c1O [AG1024]
effect on M-CSCs binding/adhesion to HPMCs (M-CSC-HPMC interaction): marked decrease | effect on M-CSCs binding/adhesion to P-selectin-Fc (P-selectin-Fc): marked decrease

O=C(O)CN(CCN(CC(=O)O)CC(=O)O)CC(=O)O [EDTA]
detachment of captured HM cells from P-selectin-coated channel bottom [1]: easily detached | effect on M-CSCs binding/adhesion to HPMCs (M-CSC-HPMC interaction): inhibited the adhesion | detachment of adherent M-CSCs from HPMCs (M-CSC-HPMC interaction; [2]): easily detach | detachment of adherent M-CSCs from P-selectin chimera (P-selectin-Fc; [2]): easily detach

COc1ccc(C2CC(c3c(O)cc(C)oc3=O)=NCCS2)c(OC)c1 (stereo not drawn) [KF38789]
extent of tumor metastases on the omentum, mesenteries and peritoneal wall (P-selectin): significantly inhibited

CCCCCCCCCCCCCCCC(=O)N[C@H](CN1CCOCC1)[C@H](O)c1ccccc1 [PPMP]
effect on M-CSCs binding/adhesion to HPMCs (M-CSC-HPMC interaction): had no effect | effect on M-CSCs binding/adhesion to P-selectin-Fc (P-selectin-Fc): had no effect

O=c1c(-c2ccc(O)cc2)coc2cc(O)cc(O)c12 [genistein]
effect on M-CSCs binding/adhesion to HPMCs (M-CSC-HPMC interaction): marked decrease | effect on M-CSCs binding/adhesion to P-selectin-Fc (P-selectin-Fc): marked decrease

[Na+].[O-][Cl+2]([O-])[O-] [sodium chlorate]
effect on M-CSCs binding/adhesion to HPMCs (M-CSC-HPMC interaction): did not alter the binding activity | effect on M-CSCs binding/adhesion to P-selectin-Fc (P-selectin-Fc): did not alter the binding activity

trypsin
effect on M-CSCs binding/adhesion to HPMCs (M-CSC-HPMC interaction): almost completely abolished the adhesion | effect on M-CSCs binding/adhesion to P-selectin-Fc (P-selectin-Fc): almost completely abolished the adhesion
